According to PubChem BioAssay (NCI):
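Compound exposure: 48 hours, 5 concentrations, 96-well plates. GI50 = concentration required for 50% inhibition of growth. TGI denotes the concentration required for complete inhibition of growth.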

Legend:
Assay in all cases: NCI tumour cell line growth inhibition, 48 h
DU-145 prostate = test system: DU-145 prostate
MCF7 breast = test system: MCF7 breast
NCI-H522 lung = test system: NCI-H522 lung
MDA-MB-231 breast = test system: MDA-MB-231 breast
ACHN renal = test system: ACHN renal
LOX IMVI melanoma = test system: LOX IMVI melanoma
IGROV1 ovarian = test system: IGROV1 ovarian
MOLT-4 leukemia = test system: MOLT-4 leukemia
TK-10 renal = test system: TK-10 renal
KM12 colon = test system: KM12 colon
EKVX NSCLC = test system: EKVX NSCLC
SNB-19 CNS = test system: SNB-19 CNS
MDA-N = test system: MDA-N
SK-OV-3 ovarian = test system: SK-OV-3 ovarian
SW-620 colon = test system: SW-620 colon
T-47D breast = test system: T-47D breast
NCI-H226 lung = test system: NCI-H226 lung
OVCAR-5 ovarian = test system: OVCAR-5 ovarian
PC-3 prostate = test system: PC-3 prostate
HOP-92 NSCLC = test system: HOP-92 NSCLC
HT29 colon = test system: HT29 colon
HOP-62 NSCLC = test system: HOP-62 NSCLC
K-562 leukemia = test system: K-562 leukemia
HCT-15 colon = test system: HCT-15 colon
HCT-116 colon = test system: HCT-116 colon
SK-MEL-2 melanoma = test system: SK-MEL-2 melanoma
786-0 renal = test system: 786-0 renal
HL-60(TB) leukemia = test system: HL-60(TB) leukemia
SF-539 CNS = test system: SF-539 CNS
MALME-3M melanoma = test system: MALME-3M melanoma
A498 renal = test system: A498 renal
OVCAR-3 ovarian = test system: OVCAR-3 ovarian
UO-31 renal = test system: UO-31 renal
SF-295 CNS = test system: SF-295 CNS
BT-549 breast = test system: BT-549 breast
RXF 393 renal = test system: RXF 393 renal
NCI-H460 lung = test system: NCI-H460 lung
A549 NSCLC = test system: A549 NSCLC
M14 melanoma = test system: M14 melanoma
NCI/ADR-RES ovarian = test system: NCI/ADR-RES ovarian
SR leukemia = test system: SR leukemia
SK-MEL-28 melanoma = test system: SK-MEL-28 melanoma
CAKI-1 renal = test system: CAKI-1 renal
U251 CNS = test system: U251 CNS
SN12C renal = test system: SN12C renal
HS 578T breast = test system: HS 578T breast
OVCAR-8 ovarian = test system: OVCAR-8 ovarian
OVCAR-4 ovarian = test system: OVCAR-4 ovarian
COLO 205 colon = test system: COLO 205 colon
UACC-257 melanoma = test system: UACC-257 melanoma
CCRF-CEM leukemia = test system: CCRF-CEM leukemia
SK-MEL-5 melanoma = test system: SK-MEL-5 melanoma
SF-268 CNS = test system: SF-268 CNS
RPMI-8226 leukemia = test system: RPMI-8226 leukemia
SNB-75 CNS = test system: SNB-75 CNS
MDA-MB-435 = test system: MDA-MB-435
HCC-2998 colon = test system: HCC-2998 colon
UACC-62 melanoma = test system: UACC-62 melanoma
NCI-H23 lung = test system: NCI-H23 lung

Structure (SMILES): COc1cc(C2c3cc4c(cc3C3OC[C@@H]2C3CO)OCO4)cc(OC)c1OC (some centres undefined)
- GI50 (DU-145 prostate): 30.4 µM
- TGI (DU-145 prostate): > 100 µM
- TGI (MCF7 breast): > 100 µM
- TGI (NCI-H522 lung): 47.8 µM
- TGI (MDA-MB-231 breast): > 100 µM
- TGI (ACHN renal): > 100 µM
- TGI (LOX IMVI melanoma): > 100 µM
- TGI (IGROV1 ovarian): > 100 µM
- TGI (MOLT-4 leukemia): > 100 µM
- TGI (TK-10 renal): > 100 µM
- TGI (KM12 colon): > 100 µM
- TGI (EKVX NSCLC): > 100 µM
- TGI (SNB-19 CNS): > 100 µM
- TGI (MDA-N): 36.1 µM
- TGI (SK-OV-3 ovarian): > 100 µM
- TGI (SW-620 colon): > 100 µM
- TGI (T-47D breast): > 100 µM
- TGI (NCI-H226 lung): 47 µM
- TGI (OVCAR-5 ovarian): > 100 µM
- TGI (PC-3 prostate): > 100 µM
- TGI (HOP-92 NSCLC): > 100 µM
- TGI (HT29 colon): > 100 µM
- GI50 (HOP-62 NSCLC): 47.4 µM
- TGI (HOP-62 NSCLC): > 100 µM
- TGI (K-562 leukemia): > 100 µM
- TGI (HCT-15 colon): 71.5 µM
- GI50 (HCT-116 colon): 30.3 µM
- TGI (HCT-116 colon): > 100 µM
- TGI (SK-MEL-2 melanoma): > 100 µM
- TGI (786-0 renal): > 100 µM
- TGI (HL-60(TB) leukemia): 18.7 µM
- GI50 (SF-539 CNS): 17.7 µM
- TGI (SF-539 CNS): 37.3 µM
- TGI (MALME-3M melanoma): > 100 µM
- TGI (A498 renal): > 100 µM
- GI50 (OVCAR-3 ovarian): 23.9 µM
- TGI (OVCAR-3 ovarian): 97.9 µM
- TGI (UO-31 renal): > 100 µM
- TGI (SF-295 CNS): > 100 µM
- TGI (BT-549 breast): 97.6 µM
- TGI (RXF 393 renal): > 100 µM
- TGI (NCI-H460 lung): 47.8 µM
- TGI (A549 NSCLC): > 100 µM
- TGI (M14 melanoma): > 100 µM
- TGI (NCI/ADR-RES ovarian): 39.3 µM
- TGI (SR leukemia): > 100 µM
- TGI (SK-MEL-28 melanoma): > 100 µM
- TGI (CAKI-1 renal): > 100 µM
- TGI (U251 CNS): > 100 µM
- GI50 (SN12C renal): 59.4 µM
- TGI (SN12C renal): > 100 µM
- TGI (HS 578T breast): 95.7 µM
- TGI (OVCAR-8 ovarian): > 100 µM
- TGI (OVCAR-4 ovarian): > 100 µM
- TGI (COLO 205 colon): 33.6 µM
- TGI (UACC-257 melanoma): 76.5 µM
- TGI (CCRF-CEM leukemia): > 100 µM
- TGI (SK-MEL-5 melanoma): 27.9 µM
- TGI (SF-268 CNS): > 100 µM
- TGI (RPMI-8226 leukemia): > 100 µM
- TGI (SNB-75 CNS): > 100 µM
- TGI (MDA-MB-435): 51.1 µM

Structure (SMILES): C/C(=N\NC(=S)N(C)C)c1cccnn1
- TGI (DU-145 prostate): > 100 µM
- TGI (MCF7 breast): > 45 µM
- TGI (NCI-H522 lung): > 100 µM
- TGI (MDA-MB-231 breast): > 100 µM
- TGI (ACHN renal): 0.474 µM
- TGI (LOX IMVI melanoma): > 51.2 µM
- TGI (HCC-2998 colon): > 100 µM
- TGI (IGROV1 ovarian): > 40.3 µM
- TGI (MOLT-4 leukemia): 3.08 µM
- TGI (TK-10 renal): > 100 µM
- TGI (KM12 colon): > 100 µM
- TGI (EKVX NSCLC): 10.4 µM
- TGI (SNB-19 CNS): > 100 µM
- TGI (MDA-N): > 74.2 µM
- TGI (SK-OV-3 ovarian): > 100 µM
- TGI (SW-620 colon): > 100 µM
- TGI (T-47D breast): > 100 µM
- TGI (NCI-H226 lung): 4.83 µM
- TGI (OVCAR-5 ovarian): > 57.3 µM
- TGI (PC-3 prostate): > 100 µM
- TGI (HT29 colon): > 100 µM
- TGI (HOP-62 NSCLC): > 100 µM
- TGI (K-562 leukemia): > 100 µM
- TGI (HCT-15 colon): > 100 µM
- TGI (HCT-116 colon): > 25.9 µM
- TGI (SK-MEL-2 melanoma): > 100 µM
- TGI (786-0 renal): > 100 µM
- TGI (HL-60(TB) leukemia): > 100 µM
- TGI (SF-539 CNS): 1.65 µM
- TGI (MALME-3M melanoma): > 70.5 µM
- TGI (A498 renal): 10.7 µM
- TGI (OVCAR-3 ovarian): > 100 µM
- TGI (UO-31 renal): 5.04 µM
- TGI (SF-295 CNS): > 100 µM
- TGI (BT-549 breast): > 100 µM
- TGI (M14 melanoma): > 100 µM
- TGI (NCI/ADR-RES ovarian): 36.6 µM
- TGI (SR leukemia): > 20.3 µM
- TGI (SK-MEL-28 melanoma): > 100 µM
- TGI (U251 CNS): > 100 µM
- TGI (SN12C renal): > 100 µM
- TGI (HS 578T breast): > 100 µM
- TGI (OVCAR-8 ovarian): > 100 µM
- TGI (OVCAR-4 ovarian): > 100 µM
- TGI (UACC-62 melanoma): 4.89 µM
- TGI (COLO 205 colon): > 100 µM
- TGI (NCI-H23 lung): > 28.2 µM
- TGI (UACC-257 melanoma): 2.98 µM
- TGI (SK-MEL-5 melanoma): > 20.7 µM
- TGI (RPMI-8226 leukemia): > 100 µM
- TGI (SNB-75 CNS): > 100 µM
- TGI (MDA-MB-435): > 100 µM

Structure (SMILES): COc1cccc(N=N/C(=N\NC(=O)c2ccc(C)cc2)c2ccc(N(CCC#N)CCC#N)cc2C)c1
- TGI (DU-145 prostate): > 100 µM
- TGI (MCF7 breast): > 100 µM
- TGI (MDA-MB-231 breast): > 100 µM
- TGI (ACHN renal): > 100 µM
- TGI (LOX IMVI melanoma): > 100 µM
- TGI (HCC-2998 colon): > 100 µM
- TGI (IGROV1 ovarian): > 100 µM
- TGI (MOLT-4 leukemia): > 100 µM
- TGI (TK-10 renal): > 100 µM
- TGI (KM12 colon): > 100 µM
- TGI (EKVX NSCLC): > 100 µM
- TGI (SNB-19 CNS): > 100 µM
- TGI (MDA-N): > 100 µM
- TGI (SK-OV-3 ovarian): > 100 µM
- TGI (SW-620 colon): > 100 µM
- TGI (T-47D breast): > 100 µM
- TGI (NCI-H226 lung): > 100 µM
- TGI (OVCAR-5 ovarian): > 100 µM
- TGI (PC-3 prostate): > 100 µM
- TGI (HOP-92 NSCLC): > 100 µM
- TGI (HT29 colon): > 100 µM
- TGI (HOP-62 NSCLC): > 100 µM
- TGI (K-562 leukemia): > 100 µM
- TGI (HCT-15 colon): > 100 µM
- TGI (HCT-116 colon): > 100 µM
- TGI (SK-MEL-2 melanoma): > 100 µM
- TGI (786-0 renal): > 100 µM
- TGI (SF-539 CNS): > 100 µM
- TGI (MALME-3M melanoma): > 100 µM
- TGI (A498 renal): > 100 µM
- TGI (OVCAR-3 ovarian): > 100 µM
- TGI (UO-31 renal): > 100 µM
- TGI (SF-295 CNS): > 100 µM
- TGI (BT-549 breast): > 100 µM
- TGI (RXF 393 renal): > 100 µM
- TGI (NCI-H460 lung): > 100 µM
- TGI (A549 NSCLC): > 100 µM
- TGI (M14 melanoma): > 100 µM
- TGI (NCI/ADR-RES ovarian): > 100 µM
- TGI (SR leukemia): > 100 µM
- TGI (SK-MEL-28 melanoma): > 100 µM
- TGI (CAKI-1 renal): > 100 µM
- TGI (U251 CNS): > 100 µM
- TGI (SN12C renal): > 100 µM
- TGI (HS 578T breast): > 100 µM
- TGI (OVCAR-8 ovarian): > 100 µM
- TGI (OVCAR-4 ovarian): > 100 µM
- TGI (COLO 205 colon): > 100 µM
- TGI (NCI-H23 lung): > 100 µM
- TGI (UACC-257 melanoma): > 100 µM
- TGI (SK-MEL-5 melanoma): > 100 µM
- TGI (SF-268 CNS): > 100 µM
- TGI (RPMI-8226 leukemia): > 100 µM
- TGI (SNB-75 CNS): > 100 µM
- TGI (MDA-MB-435): > 100 µM
